Where two headings read alike, the source gives them in different places.
What was measured:
Savinase = molecular target: T1, Savinase (Lederbergia lenta, UniProt P29600); assay: Determination of Ki, inhibition of Savinase; format: biochemical, Bacillus
T1 construct: purchased Novo Nordisk A/S
T1 sequence (P29600 1-269): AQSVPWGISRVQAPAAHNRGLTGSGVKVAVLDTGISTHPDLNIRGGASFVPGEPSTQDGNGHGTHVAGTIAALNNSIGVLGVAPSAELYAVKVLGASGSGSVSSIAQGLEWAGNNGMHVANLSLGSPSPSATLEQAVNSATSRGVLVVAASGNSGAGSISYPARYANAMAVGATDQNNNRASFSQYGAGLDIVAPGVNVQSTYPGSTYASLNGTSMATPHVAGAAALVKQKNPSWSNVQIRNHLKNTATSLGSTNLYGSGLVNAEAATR
Excerpt: (§1) c) Determination of Ki : The inhibition constant Ki may be determined by using standard methods, for reference see Keller et al, Biochem. Biophys. Res. Com. 176, 1991, pp.401-405; J. Bieth in Bayer-Symposium "Proteinase Inhibitors", pp. 463-469, Springer-Verlag, 1974 and Lone Kierstein Hansen in "Determination of Specific Activities of Selected Deterrent Proteases using Protease Activity, Molecular Weights, Kinetic Parameters and Inhibition Kinetics", PhD-report, Novo Nordisk A/S and University of Copenhagen, 1991.
(§2) The inhibition constant Ki for the inhibition of Alcalase and Savinase was determined using standard methods under the following conditions:
(§3) Substrate: Succinyl-Alanine-Alanine-Proline-Phenylalanine-paranitro-anilide=SAAPFpNA (Sigma S-7388).
(§4) Buffer: 0.1M Tris-HCl pH 8.6; 25° C.
(§5) Enzyme concentration in assay:
(§6) The initial rate of substrate hydrolysis was determined at nine substrate concentrations in the range of 0.01 to 2 mM using a Cobas Fara automated spectrophotometer. The kinetic parameters Vmax and Km were determined using ENZFITTER (a non-linear regression data analysis program). kcat was calculated from the equation Vmax =kcat ×[Eo ]. The concentration of active enzyme [Eo ] was determined by active site titration using tight-binding protein proteinase inhibitors. The inhibition constant Ki was calculated from plots of Km /kcat as a function of the concentration of inhibitor. The inhibitors were assumed to be 100% pure and the molar concentrations were determined using weighing numbers and molecular weights.

Alcalase = molecular target: T2, Alcalase (Bacillus licheniformis, UniProt P00780); assay: Determination of Ki, inhibition of Alcalase; format: biochemical
T2 construct: purchased Novo Nordisk A/S
T2 sequence (P00780 106-379): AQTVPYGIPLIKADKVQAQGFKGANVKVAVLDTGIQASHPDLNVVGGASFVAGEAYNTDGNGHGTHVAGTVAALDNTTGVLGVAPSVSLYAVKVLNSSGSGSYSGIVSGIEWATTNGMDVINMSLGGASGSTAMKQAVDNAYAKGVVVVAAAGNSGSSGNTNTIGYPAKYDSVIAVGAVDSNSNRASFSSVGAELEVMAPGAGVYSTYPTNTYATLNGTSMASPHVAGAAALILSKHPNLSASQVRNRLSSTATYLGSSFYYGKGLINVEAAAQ
Excerpt: as §1, §2, §3, §4, §5, §6

subtilisin = conditions: Keller et al, Biochem. Biophys. Res. Com. 176, 1991, pp. 401-405; cited from earlier work
proteolytic enzymes = conditions: prior art; WO 92/19707 for acetamidobenzene boronic acid; cited from earlier work
[1] = substrate SAAPFpNA, 0.1M Tris-HCl pH 8.6, 25° C., Savinase 1×10^-10 - 3×10^-10 M, read-out: Ki Savinase
[2] = substrate SAAPFpNA, 0.1M Tris-HCl pH 8.6, 25° C., Alcalase 1×10^-10 - 3×10^-10 M, read-out: Ki Alcalase

Compound | Ki (Savinase; [1]) | Ki (Alcalase; [2]) | also measured
OB(O)c1ccc2cc(O)ccc2c1 [6-hydroxynaphthalene-2-boronic acid] | 600 µM | 500 µM | –
OB(O)c1cc(Cl)cc(Cl)c1 [3,5-dichlorophenylboronic acid] | – | – | capacity as subtilisin inhibitor (subtilisin): particularly effective
acetamidobenzene boronic acid | – | – | inhibition of proteolytic enzymes (proteolytic enzymes): superior inhibitor of proteolytic enzymes
OB(O)c1cccc2ccccc12 [Naphthalene-1-boronic acid, Naphthalene-1-Boronic Acid] | 900 µM | 500 µM | –
CB(O)O [methylboronic acid] | – | – | capacity as subtilisin inhibitor (subtilisin): poorest inhibitor
OB(O)O [Boric acid] | – | – | inhibition of proteolytic enzymes (proteolytic enzymes): reversibly inhibit proteolytic enzymes; Ki (Savinase): 20000 µM; Ki (Alcalase): 30000 µM
OB(O)c1ccc2ccccc2c1 [Naphthalene-2-boronic acid, Naphthalene-2-Boronic Acid] | 300 µM | 400 µM | –
